Biological target: T1, human serum albumin (HSA) (Homo sapiens, UniProt P02768)
T1 construct: gene ALB
Assay: fluorescence titration (one-site fit), Job's plot […], site-marker displacement
Type: binding

T1 sequence (P02768 25-609): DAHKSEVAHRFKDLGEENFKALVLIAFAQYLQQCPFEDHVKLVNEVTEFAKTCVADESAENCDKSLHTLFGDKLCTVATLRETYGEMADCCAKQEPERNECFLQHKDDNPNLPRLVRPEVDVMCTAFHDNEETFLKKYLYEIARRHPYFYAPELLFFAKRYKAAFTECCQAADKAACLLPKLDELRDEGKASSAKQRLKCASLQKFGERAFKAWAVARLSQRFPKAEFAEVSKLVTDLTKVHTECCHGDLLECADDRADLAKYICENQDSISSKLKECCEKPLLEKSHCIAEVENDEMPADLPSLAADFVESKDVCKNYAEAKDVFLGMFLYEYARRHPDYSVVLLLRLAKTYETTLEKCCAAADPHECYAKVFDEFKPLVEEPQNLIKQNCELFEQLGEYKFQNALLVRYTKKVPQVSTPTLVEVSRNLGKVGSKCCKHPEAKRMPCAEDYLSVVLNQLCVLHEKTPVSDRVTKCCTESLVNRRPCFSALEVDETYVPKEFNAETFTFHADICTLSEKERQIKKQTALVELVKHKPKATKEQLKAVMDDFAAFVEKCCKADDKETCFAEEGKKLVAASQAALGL

Kd: 5.4 µM
SMILES: CCN(CC)c1ccc(-c2cc3c(s2)c(C(=O)O)cc(=O)n3C)cc1 [compound 4, KF 4]

Source: paper PMC6928863, “Development of Human Serum Albumin Selective Fluorescent Probe Using Thieno[3,2-b]pyridine-5(4H)-one Fluorophore Derivatives” (Sensors (Basel, Switzerland), 2019)
